Reference: ChEMBL document CHEMBL1201862, “PubChem BioAssay data set” (2004)
The source made the active and inactive calls.

Assays:
[1] = biological target: T1, High affinity choline transporter 1 (Homo sapiens, UniProt Q9GZV3); test: CHT activators, dose response, cell-based, 10-point CRC, membrane potential dye (AID 602376); type: functional
T1 sequence (Q9GZV3 whole entry): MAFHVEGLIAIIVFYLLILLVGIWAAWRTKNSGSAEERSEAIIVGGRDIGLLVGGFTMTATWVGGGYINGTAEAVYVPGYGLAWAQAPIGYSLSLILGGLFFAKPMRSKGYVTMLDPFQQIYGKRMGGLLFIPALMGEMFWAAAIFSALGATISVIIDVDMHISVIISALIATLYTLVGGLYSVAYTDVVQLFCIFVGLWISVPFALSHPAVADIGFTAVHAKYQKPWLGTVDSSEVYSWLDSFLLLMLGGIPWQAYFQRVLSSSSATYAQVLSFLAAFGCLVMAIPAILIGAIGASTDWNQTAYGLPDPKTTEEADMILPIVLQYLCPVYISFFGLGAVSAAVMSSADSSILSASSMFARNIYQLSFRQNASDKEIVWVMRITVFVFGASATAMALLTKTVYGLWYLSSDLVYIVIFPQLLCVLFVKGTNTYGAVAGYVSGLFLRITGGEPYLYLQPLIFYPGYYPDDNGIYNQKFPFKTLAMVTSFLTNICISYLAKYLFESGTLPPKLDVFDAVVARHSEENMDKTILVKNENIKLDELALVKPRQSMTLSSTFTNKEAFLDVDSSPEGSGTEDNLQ

CHO = test: cytotoxicity in TLR9-MyD88 CHO cells, dose response, cytotoxicity control for TLR9-MyD88 binding inhibitor project, cell-based, luminescence (AID 588339); type: functional, hamster; conditions: Cricetulus griseus;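 note: CHO cells stably coexpressing TLR9 and MyD88 fusions from primary screen; compound exposure lasted 48 hours before viability readout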
[2] = HepG2 cell cytotoxicity, dose response, cytotoxicity control for Shn3 inhibitor project, CellTiter-Glo, cherry-picked (AID 624134); type: functional, cell-based
[3] = control 3'UTR Renilla luciferase suppression, dose response, counter-screen for Shn3 inhibitor project, cell-based, Clone20-Shn3RL, cherry-picked (AID 624133); type: functional
[4] = biological target: T1, High affinity choline transporter 1; test: CHT inhibitors, dose response, cell-based, 5-point CRC, membrane potential dye (AID 504840); type: functional
[5] = Shn3 3'UTR reporter inhibitors, dose response, cell-based, Clone20 osteoblasts, firefly luciferase, cherry-picked (AID 624132); type: functional;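 note: firefly luciferase luminescence from reporter carrying the Shn3 3'UTR in osteoblasts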
Beta Lactamase = Beta Lactamase (Pseudomonas aeruginosa, UniProt Q932Y6); test: beta-lactamase reporter inhibitor potency, dose response, artefact control for TLR9-MyD88 binding inhibitor project, BLA reporter cells, FRET fluorescence (AID 588341); type: cell-based;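 note: cell based assay in CHO-K1 cells stably expressing beta-lactamase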
Protein RecA = biological target: T2, Protein RecA (Mycobacterium tuberculosis, UniProt P9WHJ3); test: Fluorescence Cell-Free Homogeneous Dose Retest to Identify Inhibitors of RecA-Intein Splicing Activity. [Related pubchem assays (depositor defined):AID2097, AID2223, AID489010, AID492950]; type: functional
T2 sequence (P9WHJ3 whole entry): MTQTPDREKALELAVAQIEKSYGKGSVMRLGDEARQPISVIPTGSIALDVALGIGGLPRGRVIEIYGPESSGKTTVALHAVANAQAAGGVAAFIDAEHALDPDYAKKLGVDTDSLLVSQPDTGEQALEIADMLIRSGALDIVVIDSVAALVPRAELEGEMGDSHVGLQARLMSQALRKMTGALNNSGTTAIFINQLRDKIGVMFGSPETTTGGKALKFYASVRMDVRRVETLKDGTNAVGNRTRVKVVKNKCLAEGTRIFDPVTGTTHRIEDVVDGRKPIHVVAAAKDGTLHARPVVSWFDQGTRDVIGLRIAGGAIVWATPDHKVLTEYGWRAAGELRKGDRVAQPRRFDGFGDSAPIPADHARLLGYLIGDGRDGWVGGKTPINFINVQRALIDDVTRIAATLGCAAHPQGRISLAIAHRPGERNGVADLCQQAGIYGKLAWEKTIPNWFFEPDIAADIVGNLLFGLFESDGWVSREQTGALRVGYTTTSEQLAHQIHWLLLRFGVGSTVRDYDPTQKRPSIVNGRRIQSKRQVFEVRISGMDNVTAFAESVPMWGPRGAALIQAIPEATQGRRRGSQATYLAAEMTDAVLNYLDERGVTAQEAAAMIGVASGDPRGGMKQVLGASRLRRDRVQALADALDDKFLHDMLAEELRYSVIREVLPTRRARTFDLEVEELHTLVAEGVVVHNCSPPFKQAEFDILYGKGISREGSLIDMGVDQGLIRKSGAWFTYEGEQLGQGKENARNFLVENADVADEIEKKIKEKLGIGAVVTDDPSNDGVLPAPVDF

[6] = biological target: T3, Replicative DNA helicase DnaB (Mycobacterium tuberculosis, UniProt P9WMR3); test: DnaB intein splicing inhibitors, dose response, biochemical, cell-free fluorescence (AID 449749); type: functional
T3 sequence (P9WMR3 whole entry): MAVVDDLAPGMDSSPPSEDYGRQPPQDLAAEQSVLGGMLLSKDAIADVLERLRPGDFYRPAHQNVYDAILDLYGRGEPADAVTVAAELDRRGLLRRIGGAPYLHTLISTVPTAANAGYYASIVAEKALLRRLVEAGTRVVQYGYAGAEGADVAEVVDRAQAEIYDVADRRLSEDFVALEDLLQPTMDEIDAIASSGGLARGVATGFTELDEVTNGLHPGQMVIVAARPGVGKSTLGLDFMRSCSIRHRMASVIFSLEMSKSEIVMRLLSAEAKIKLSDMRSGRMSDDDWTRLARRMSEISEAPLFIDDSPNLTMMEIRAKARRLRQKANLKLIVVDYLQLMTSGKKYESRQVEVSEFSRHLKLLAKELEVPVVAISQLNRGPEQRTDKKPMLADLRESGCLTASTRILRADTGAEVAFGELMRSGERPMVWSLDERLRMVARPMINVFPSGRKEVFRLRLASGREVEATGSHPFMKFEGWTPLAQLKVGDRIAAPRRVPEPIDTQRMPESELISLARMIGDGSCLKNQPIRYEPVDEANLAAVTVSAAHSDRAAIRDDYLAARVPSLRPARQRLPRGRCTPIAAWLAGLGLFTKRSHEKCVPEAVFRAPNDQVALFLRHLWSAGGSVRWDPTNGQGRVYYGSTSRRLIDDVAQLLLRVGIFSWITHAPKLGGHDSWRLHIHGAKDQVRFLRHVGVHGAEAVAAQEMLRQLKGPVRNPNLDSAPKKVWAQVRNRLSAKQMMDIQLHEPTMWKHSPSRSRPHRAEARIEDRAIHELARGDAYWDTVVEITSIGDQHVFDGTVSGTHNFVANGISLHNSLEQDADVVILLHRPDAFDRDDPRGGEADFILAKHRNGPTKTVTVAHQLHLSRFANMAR

INS1 = test: inhibitors of cytokine-induced nitrite release, dose response, cell-based, Griess absorbance, INS-1E, dry powder, set 2 (AID 488868); type: functional; conditions: Rattus norvegicus
[7] = biological target: Melanin-concentrating hormone receptor 1 (Homo sapiens, UniProt Q99705); test: Late-stage fluorescence-based counterscreen for antagonists of the G-protein coupled receptor 7 (GPR7): cell-based dose response assay to identify antagonists of the melanin-concentrating hormone receptor 1 (MCHR1) Set 6.; type: functional
[8] = biological target: T4, Neuropeptides B/W receptor type 1 (Homo sapiens, UniProt P48145); test: GPR7 antagonist potency, late-stage follow-up, cell-based, fluorescence, dose response, set 6 (AID 588583); type: functional
T4 sequence (P48145 whole entry): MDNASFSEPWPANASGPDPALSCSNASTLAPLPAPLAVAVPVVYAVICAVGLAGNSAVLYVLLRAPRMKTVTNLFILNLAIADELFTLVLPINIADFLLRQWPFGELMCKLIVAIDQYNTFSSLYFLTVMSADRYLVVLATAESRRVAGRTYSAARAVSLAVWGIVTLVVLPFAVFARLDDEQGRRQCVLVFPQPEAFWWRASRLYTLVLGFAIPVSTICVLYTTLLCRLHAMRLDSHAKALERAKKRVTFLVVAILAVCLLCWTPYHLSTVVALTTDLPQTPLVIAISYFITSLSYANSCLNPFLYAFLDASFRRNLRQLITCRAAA

[9] = biological target: Protein kinase C iota type (Homo sapiens, UniProt P41743); type: functional;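 note: measured within a kinome-wide kinase panel, PRKCI as panel member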
[10] = biological target: Calcium/calmodulin-dependent protein kinase type II subunit beta (Homo sapiens, UniProt Q13554); type: functional
[11] = biological target: Cyclin-dependent kinase 9 (Homo sapiens, UniProt P50750); type: functional;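 note: value from the CDK9 entry of a kinome-spanning kinase panel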
[12] = biological target: Dual specificity tyrosine-phosphorylation-regulated kinase 4 (Homo sapiens, UniProt Q9NR20); type: functional
[13] = biological target: Protein kinase C gamma type (Homo sapiens, UniProt P05129); type: functional
[14] = biological target: Serine/threonine-protein kinase pim-3 (Homo sapiens, UniProt Q86V86); type: functional;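 note: value obtained as one member of a broad kinase panel profiling effort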
[15] = biological target: RAC-gamma serine/threonine-protein kinase (Homo sapiens, UniProt Q9Y243); type: functional
[16] = biological target: Calcium/calmodulin-dependent protein kinase kinase 2 (Homo sapiens, UniProt Q96RR4); test: Navigating the Kinome. Panel member name: CAMKK2; type: functional
[17] = biological target: RAC-alpha serine/threonine-protein kinase (Homo sapiens, UniProt P31749); type: functional;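 note: AKT1 affinity measured as one member of a kinome-wide kinase profiling panel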
[18] = biological target: Casein kinase I isoform delta (Homo sapiens, UniProt P48730); type: functional;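 note: measured as one member (CSNK1D) of a kinome panel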
[19] = biological target: Casein kinase I isoform alpha (Homo sapiens, UniProt P48729); type: functional
[20] = biological target: cGMP-dependent protein kinase 1 (Homo sapiens, UniProt Q13976); type: functional;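 note: value from a kinome panel screen with PRKG1 as the panel member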
[21] = biological target: Homeodomain-interacting protein kinase 2 (Homo sapiens, UniProt Q9H2X6); type: functional;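 note: measured within a kinome-wide kinase profiling panel, HIPK2 being one panel member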
[22] = biological target: T5, cAMP-dependent protein kinase catalytic subunit PRKX (Homo sapiens, UniProt P51817); type: functional
T5 sequence (P51817 whole entry): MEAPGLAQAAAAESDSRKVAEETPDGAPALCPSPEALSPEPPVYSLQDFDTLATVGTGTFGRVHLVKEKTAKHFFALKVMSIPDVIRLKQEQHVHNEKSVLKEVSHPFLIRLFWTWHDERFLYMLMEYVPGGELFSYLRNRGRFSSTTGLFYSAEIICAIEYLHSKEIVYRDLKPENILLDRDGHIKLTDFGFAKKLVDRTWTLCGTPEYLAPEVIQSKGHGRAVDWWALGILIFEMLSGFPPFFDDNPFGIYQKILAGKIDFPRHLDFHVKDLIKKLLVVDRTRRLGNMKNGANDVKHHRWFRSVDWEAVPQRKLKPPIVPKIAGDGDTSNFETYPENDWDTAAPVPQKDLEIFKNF

[23] = biological target: Serine/threonine-protein kinase pim-2 (Homo sapiens, UniProt Q9P1W9); type: functional;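 note: value comes from a broad kinase panel profiling study in which PIM2 was one of the panel members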
[24] = biological target: Mitogen-activated protein kinase 14 (Homo sapiens, UniProt Q16539); type: functional;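 note: part of a kinome-wide panel, MAPK14 entry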
[25] = biological target: Serine/threonine-protein kinase D2 (Homo sapiens, UniProt Q9BZL6); type: functional;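 note: measured against PRKD2 as one member of a kinome-wide kinase profiling panel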
[26] = biological target: Dual specificity tyrosine-phosphorylation-regulated kinase 1B (Homo sapiens, UniProt Q9Y463); test: Navigating the Kinome. Panel member name: DYRK1B; type: functional
[27] = biological target: Serine/threonine-protein kinase pim-1 (Homo sapiens, UniProt P11309); type: functional
[28] = biological target: MAP kinase-activated protein kinase 5 (Homo sapiens, UniProt Q8IW41); type: functional;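 note: measured as one member of a kinome panel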

Sequence of Calcium/calmodulin-dependent protein kinase type II subunit beta (Q13554 whole entry): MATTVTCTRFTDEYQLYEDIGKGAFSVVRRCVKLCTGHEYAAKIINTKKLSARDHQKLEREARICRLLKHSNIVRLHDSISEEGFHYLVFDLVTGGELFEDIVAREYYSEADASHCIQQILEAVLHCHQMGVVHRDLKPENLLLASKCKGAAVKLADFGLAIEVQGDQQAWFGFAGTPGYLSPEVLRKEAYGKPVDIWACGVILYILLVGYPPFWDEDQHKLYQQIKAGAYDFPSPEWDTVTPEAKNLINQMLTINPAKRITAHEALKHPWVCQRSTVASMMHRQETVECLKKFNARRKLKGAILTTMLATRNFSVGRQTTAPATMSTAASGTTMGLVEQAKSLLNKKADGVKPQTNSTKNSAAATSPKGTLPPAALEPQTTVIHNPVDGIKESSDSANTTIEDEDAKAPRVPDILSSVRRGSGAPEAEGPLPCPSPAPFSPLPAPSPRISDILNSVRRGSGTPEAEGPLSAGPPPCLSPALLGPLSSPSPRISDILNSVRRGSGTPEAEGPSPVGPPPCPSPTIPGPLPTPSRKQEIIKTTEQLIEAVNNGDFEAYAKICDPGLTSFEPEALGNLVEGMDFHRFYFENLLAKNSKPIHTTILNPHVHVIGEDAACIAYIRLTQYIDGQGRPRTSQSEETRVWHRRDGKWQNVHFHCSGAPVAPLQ
Sequence of Calcium/calmodulin-dependent protein kinase kinase 2 (Q96RR4 whole entry): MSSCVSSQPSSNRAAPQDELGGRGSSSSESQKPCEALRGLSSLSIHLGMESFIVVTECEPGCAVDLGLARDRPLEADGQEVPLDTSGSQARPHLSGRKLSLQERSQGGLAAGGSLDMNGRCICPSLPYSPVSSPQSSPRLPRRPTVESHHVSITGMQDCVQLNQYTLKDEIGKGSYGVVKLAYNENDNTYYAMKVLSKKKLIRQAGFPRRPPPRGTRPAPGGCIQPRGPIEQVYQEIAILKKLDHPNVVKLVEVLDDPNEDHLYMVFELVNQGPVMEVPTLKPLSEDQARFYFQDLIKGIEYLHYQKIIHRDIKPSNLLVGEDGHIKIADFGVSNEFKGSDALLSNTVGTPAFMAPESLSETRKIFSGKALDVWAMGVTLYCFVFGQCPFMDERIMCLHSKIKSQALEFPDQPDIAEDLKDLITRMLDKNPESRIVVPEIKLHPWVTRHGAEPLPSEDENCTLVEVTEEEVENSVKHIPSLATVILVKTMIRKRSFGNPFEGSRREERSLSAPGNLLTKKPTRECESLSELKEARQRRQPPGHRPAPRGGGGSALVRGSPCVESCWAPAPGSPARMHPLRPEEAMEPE
Sequence of Melanin-concentrating hormone receptor 1 (Q99705 whole entry): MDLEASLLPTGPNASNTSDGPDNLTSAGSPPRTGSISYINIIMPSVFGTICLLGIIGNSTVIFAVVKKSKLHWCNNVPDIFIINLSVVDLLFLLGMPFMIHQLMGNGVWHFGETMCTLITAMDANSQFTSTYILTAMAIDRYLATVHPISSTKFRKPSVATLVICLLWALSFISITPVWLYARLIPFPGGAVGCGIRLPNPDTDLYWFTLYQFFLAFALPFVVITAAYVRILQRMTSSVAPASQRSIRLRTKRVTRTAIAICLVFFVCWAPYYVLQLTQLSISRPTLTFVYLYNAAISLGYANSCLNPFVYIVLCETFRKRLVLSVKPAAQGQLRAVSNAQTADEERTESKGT
Sequence of Protein kinase C iota type (P41743 whole entry): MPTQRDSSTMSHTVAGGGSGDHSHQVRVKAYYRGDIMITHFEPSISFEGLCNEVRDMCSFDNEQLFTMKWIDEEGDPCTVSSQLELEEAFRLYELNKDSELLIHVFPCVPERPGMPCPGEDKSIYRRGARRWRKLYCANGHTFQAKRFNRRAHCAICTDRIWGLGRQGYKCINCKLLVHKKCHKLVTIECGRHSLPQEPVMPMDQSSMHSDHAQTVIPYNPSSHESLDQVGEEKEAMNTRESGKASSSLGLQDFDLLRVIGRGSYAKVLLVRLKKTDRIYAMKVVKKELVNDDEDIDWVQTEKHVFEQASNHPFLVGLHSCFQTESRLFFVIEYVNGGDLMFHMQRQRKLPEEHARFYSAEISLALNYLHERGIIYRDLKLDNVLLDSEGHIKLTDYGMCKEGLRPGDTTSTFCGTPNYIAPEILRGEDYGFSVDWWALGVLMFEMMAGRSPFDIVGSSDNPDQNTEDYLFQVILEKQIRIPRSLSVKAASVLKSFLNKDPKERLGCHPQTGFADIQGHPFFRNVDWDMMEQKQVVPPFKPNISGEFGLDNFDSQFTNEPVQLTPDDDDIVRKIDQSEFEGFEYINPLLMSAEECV
Sequence of Serine/threonine-protein kinase D2 (Q9BZL6 whole entry): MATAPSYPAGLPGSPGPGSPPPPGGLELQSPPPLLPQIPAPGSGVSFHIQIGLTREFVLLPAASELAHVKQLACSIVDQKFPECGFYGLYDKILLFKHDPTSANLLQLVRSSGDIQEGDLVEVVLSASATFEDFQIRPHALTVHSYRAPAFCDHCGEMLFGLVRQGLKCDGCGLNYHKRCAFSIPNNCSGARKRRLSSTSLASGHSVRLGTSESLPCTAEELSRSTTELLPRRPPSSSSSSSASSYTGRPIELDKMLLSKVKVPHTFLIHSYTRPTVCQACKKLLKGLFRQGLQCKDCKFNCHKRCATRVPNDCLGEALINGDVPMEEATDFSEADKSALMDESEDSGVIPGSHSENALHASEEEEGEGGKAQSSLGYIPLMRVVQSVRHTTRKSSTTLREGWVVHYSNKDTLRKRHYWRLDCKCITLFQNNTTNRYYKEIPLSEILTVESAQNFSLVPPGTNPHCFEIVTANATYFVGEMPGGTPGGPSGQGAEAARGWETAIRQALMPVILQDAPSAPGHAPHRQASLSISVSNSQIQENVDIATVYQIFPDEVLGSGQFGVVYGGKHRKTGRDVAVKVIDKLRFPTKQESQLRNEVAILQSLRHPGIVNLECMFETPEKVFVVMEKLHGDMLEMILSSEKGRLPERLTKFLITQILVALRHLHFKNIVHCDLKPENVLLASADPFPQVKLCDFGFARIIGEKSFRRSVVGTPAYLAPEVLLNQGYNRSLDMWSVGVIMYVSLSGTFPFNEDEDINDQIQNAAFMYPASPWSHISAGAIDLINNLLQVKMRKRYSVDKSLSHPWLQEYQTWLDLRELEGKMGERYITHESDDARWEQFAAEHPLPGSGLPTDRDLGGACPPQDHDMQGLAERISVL
Sequence of Beta Lactamase (Q932Y6 whole entry): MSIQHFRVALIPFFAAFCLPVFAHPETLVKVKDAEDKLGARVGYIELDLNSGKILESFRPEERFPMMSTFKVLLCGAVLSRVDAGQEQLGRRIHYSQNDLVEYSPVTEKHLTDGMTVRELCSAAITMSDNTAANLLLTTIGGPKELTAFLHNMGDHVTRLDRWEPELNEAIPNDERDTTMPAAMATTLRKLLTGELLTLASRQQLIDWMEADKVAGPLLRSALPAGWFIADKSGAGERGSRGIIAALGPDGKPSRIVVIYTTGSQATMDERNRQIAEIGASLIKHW
Sequence of RAC-alpha serine/threonine-protein kinase (P31749 whole entry, canonical isoform): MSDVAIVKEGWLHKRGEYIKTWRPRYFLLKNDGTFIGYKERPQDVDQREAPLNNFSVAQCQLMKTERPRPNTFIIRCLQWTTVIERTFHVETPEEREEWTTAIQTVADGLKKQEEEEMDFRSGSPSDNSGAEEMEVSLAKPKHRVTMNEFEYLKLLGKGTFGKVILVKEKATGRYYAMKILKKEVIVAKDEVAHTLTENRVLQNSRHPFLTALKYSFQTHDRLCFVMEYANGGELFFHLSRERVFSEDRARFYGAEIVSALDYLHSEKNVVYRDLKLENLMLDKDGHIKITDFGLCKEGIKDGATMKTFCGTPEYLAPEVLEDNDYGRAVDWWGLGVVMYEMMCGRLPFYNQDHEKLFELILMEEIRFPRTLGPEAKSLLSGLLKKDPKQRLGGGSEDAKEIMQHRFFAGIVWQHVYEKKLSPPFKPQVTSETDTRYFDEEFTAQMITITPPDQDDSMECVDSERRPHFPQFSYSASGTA
Sequence of cGMP-dependent protein kinase 1 (Q13976 whole entry): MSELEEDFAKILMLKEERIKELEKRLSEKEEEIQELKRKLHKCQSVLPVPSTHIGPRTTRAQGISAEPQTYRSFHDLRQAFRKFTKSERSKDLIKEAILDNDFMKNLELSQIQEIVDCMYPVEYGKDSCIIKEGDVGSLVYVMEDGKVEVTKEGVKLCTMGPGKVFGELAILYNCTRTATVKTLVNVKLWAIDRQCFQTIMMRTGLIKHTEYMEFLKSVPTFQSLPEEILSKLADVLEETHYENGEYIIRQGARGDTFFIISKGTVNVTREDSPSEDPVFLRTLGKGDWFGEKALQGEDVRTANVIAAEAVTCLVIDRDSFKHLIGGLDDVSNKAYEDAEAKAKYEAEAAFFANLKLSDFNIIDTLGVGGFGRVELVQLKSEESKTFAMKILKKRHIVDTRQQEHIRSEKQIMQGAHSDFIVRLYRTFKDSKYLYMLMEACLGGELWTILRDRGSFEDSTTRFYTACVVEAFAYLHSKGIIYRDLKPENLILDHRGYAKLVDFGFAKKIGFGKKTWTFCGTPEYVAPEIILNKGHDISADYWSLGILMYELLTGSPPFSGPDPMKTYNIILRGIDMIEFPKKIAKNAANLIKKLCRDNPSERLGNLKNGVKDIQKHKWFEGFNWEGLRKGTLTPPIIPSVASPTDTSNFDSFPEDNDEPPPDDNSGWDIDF

In the case of `COc1ccc(N2C(=O)/C(=C\c3ccco3)N=C2SCC(=O)N(C(C)C)C(C)C)cc1Cl`, the EC50 [1] is reported as 17.6 µM (active).

For `COc1cccc(NC(=O)c2nc(S(C)(=O)=O)ncc2Cl)c1`, the IC50 (CHO) was 5.41 µM (active), the AC50 [2] was 22 µM (active) and the AC50 [3] was 11.5 µM (active). The IC50 [4] was 14.5 µM (active), the AC50 [5] was 0.834 µM (active) and the IC50 (Beta Lactamase) was 8.9 µM (active). For the same molecule, the EC50 (Protein RecA) was 6.17 µM (active) and the AC50 [6] was 0.111 µM (inconclusive).

With `C[C@@H]1CN([C@@H](C)CO)C(=O)c2cccc(NC(=O)Nc3cccc4ccccc34)c2O[C@H]1CN(C)S(=O)(=O)c1ccccc1` the AC50 (INS1) was 36.1 µM (active).

For `N#CC(c1ccc(C(F)(F)F)cc1)c1c(Cl)cnn(Cc2cccc3ccccc23)c1=O` (configuration not stated), the IC50 [7] was 0.699 µM (active) and the IC50 [8] was 0.699 µM (active).

For `COc1cc(Nc2ncc(F)c(Nc3ccc4c(n3)NC(=O)C(C)(C)O4)n2)cc(OC)c1OC` [R-406], the Ki [9] was > 5.01 µM (inactive), the Ki [10] was > 7.94 µM (inactive) and the Ki [11] was > 1.58 µM (inactive). The Ki [12] was 1.58 µM (active), the Ki [13] was 0.251 µM (active) and the Ki [14] was 0.631 µM (active). For the same molecule, the Ki [15] was > 10 µM (inactive), the Ki [16] was > 2.51 µM (inactive) and the Ki [17] was > 7.94 µM (inactive). For the same molecule, the Ki [18] was > 7.94 µM (inactive), the Ki [19] was > 5.01 µM (inactive) and the Ki [20] was > 2 µM (inactive). The Ki [21] was 0.2 µM (active), the Ki [22] was > 2.51 µM (inactive) and the Ki [23] was > 1.58 µM (inactive). The Ki [24] was > 3.98 µM (inactive), the Ki [25] was 0.631 µM (active) and the Ki [26] was > 2.51 µM (inactive). The Ki [27] was > 6.31 µM (inactive) and the Ki [28] was > 1.58 µM (inactive).
